Reference: patent US20060079453A1, “Hla binding peptides and their uses” (priority 2002, published 2006)

Experiments:
Assay in all cases: biochemical
Type in all cases: binding
HLA-DR DRB1*0802 (DR8) = HLA-DR DRB1*0802 (DR8) (Homo sapiens, UniProt P01903+P01911, A100R/A103L/A169T/F76Y/H45Y/I96F/K41T/L162R/M171V/P40S/Q125H/Q178H/Q39Y/Q99D/R218S/R42G/S66Y/V115G/W38E)
HLA-DR DRB1*1101 (DR11) = HLA-DR DRB1*1101 (DR11) (Homo sapiens, UniProt P01903+P01911, A100R/A169T/A87E/I96F/K41T/L162R/M171V/P40S/Q125H/Q178H/Q39Y/Q99D/R42S/S66Y/T262R/V115G/W38E); details: DRB1 *1101
Sequence of HLA-DR DRB1*1101 (DR11) (P01903 26-254 limits assumed, other chains not shown): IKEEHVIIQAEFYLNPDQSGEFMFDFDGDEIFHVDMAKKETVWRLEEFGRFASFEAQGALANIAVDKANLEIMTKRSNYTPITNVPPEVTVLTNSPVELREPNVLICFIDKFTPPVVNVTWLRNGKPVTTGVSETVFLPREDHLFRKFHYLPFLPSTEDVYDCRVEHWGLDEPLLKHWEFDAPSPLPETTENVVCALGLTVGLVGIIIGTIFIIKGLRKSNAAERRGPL

HLA-DR DRB3*0101 (DR52) = HLA-DR DRB3*0101 (DR52) (Homo sapiens, UniProt P01903+P79483)
HLA-DR DRB5*0101 (DR51) = HLA-DR DRB5*0101 (DR51) (Homo sapiens, UniProt P01903+Q30154); details: DRB5 *0101
HLA-DR DRB1*1302 (DR13) = HLA-DR DRB1*1302 (DR13) (Homo sapiens, UniProt P01903+P01911, A100E/A169T/K41T/L162R/M171V/P40S/Q125H/Q178H/Q39Y/Q99D/R42S/S66N/T262R/V115G/W38E/Y61H); details: DRBI *1302
Sequence of HLA-DR DRB1*1302 (DR13) (P01903 26-254 limits assumed, other chains not shown): as above

HLA-DR DRB1*0101 (DR1) = HLA-DR DRB1*0101 (DR1) (Homo sapiens, UniProt P01903+P01911, A100R/D57E/F55L/F60I/F76Y/I96L/L162R/M171V/P40L/Q125E/R42F/V115G/Y59C); details: DRB1 *0101
HLA-DR DRB4*0101 (DR53) = HLA-DR DRB4*0101 (DR53) (Homo sapiens, UniProt P01903+P13762, G164S); details: DRB4 *0101
HLA-DR DRB1*0901 (DR9) = HLA-DR DRB1*0901 (DR9) (Homo sapiens, UniProt P01903+P01911, A100R/A103E/D57H/D86V/F55Y/F60I/F76Y/I96F/K127E/L162R/M171V/P40D/Q125H/Q99R/R33Q/R42F/S133A/S66N/T210M/V115G/W38K/Y107V/Y59G/Y89S); details: DRB1 *0901
HLA-DR DRB1*0701 (DR7) = HLA-DR DRB1*0701 (DR7) (Homo sapiens, UniProt P01903+P01911, A100R/A102G/A103Q/D57E/D86V/E43K/F76Y/K127E/L162R/M171V/P40G/Q125H/Q99D/R33Q/R42Y/R54Q/S133A/S66F/T210M/V115G/Y107V/Y59L/Y89S); details: DRB1 *0701
HLA-DR DRB1*1501 (DR15) = HLA-DR DRB1*1501 (DR15) (Homo sapiens, UniProt P01903+P01911); details: DRBI *1501
HLA-DR DRB1*0401 (DR4) = HLA-DR DRB1*0401 (DR4) (Homo sapiens, UniProt P01903+P01911, A100K/A169T/F76Y/I96L/K127E/L162R/M171V/N62H/P40V/Q125Y/R42H/S133A/S149N/S66Y/V115G/V209L/W38E); details: DRB1 *0401
HLA-DR DRB1*0301 (DR3) = HLA-DR DRB1*0301 (DR3) (Homo sapiens, UniProt P01903+P01911, A100K/A102G/A103R/A169T/F55Y/I96L/K41T/L162R/M171V/P40S/Q125H/Q178H/Q39Y/R42S/S66N/T106N/T262R/W38E/Y61H)
Sequence of HLA-DR DRB1*0301 (DR3) (P01903 26-254 limits assumed, other chains not shown): as above

## CC[C@H](C)[C@H](NC(=O)[C@H](CO)NC(=O)[C@H](CO)NC(=O)[C@H](CC(=O)O)NC(=O)[C@H](C)NC(=O)[C@H](CC(N)=O)NC(=O)[C@@H](NC(=O)[C@H](Cc1ccc(O)cc1)NC(=O)[C@H](C)NC(=O)[C@@H](NC(=O)CNC(=O)[C@H](CCCNC(=N)N)NC(=O)[C@@H](N)CCC(=O)O)C(C)C)[C@@H](C)CC)C(=O)N[C@@H](CCC(=O)O)C(=O)NCC(=O)O
HLA-DR DRB1*0802 (DR8)
  IC50: > 163 µM
HLA-DR DRB1*1101 (DR11)
  IC50: > 50 µM
HLA-DR DRB3*0101 (DR52)
  IC50: 6.85 µM
HLA-DR DRB5*0101 (DR51)
  IC50: ≥ 200 µM
HLA-DR DRB1*1302 (DR13)
  IC50: 3.69 µM
HLA-DR DRB1*0101 (DR1)
  IC50: 2.44 µM
HLA-DR DRB4*0101 (DR53)
  IC50: 0.087 µM
HLA-DR DRB1*0901 (DR9)
  IC50: 25.5 µM
HLA-DR DRB1*0701 (DR7)
  IC50: 34 µM
HLA-DR DRB1*1501 (DR15)
  IC50: 30.3 µM
HLA-DR DRB1*0401 (DR4)
  IC50: 6.76 µM

## CC[C@H](C)[C@H](NC(=O)CNC(=O)[C@H](CCCNC(=N)N)NC(=O)[C@H](CCCNC(=N)N)NC(=O)[C@H](Cc1ccc(O)cc1)NC(=O)[C@H](C)NC(=O)[C@H](Cc1ccc(O)cc1)NC(=O)[C@@H](N)CCC(=O)O)C(=O)N[C@@H](C)C(=O)N[C@@H](CCC(=O)O)C(=O)N[C@@H](C)C(=O)N[C@H](C(=O)NCC(=O)N[C@@H](CC(C)C)C(=O)N1CCC[C@H]1C(=O)O)C(C)C
HLA-DR DRB1*0802 (DR8)
  IC50: 0.596 µM
HLA-DR DRB1*1101 (DR11)
  IC50: 2.59 µM
HLA-DR DRB3*0101 (DR52)
  IC50: 8.77 µM
HLA-DR DRB5*0101 (DR51)
  IC50: 1.2 µM
HLA-DR DRB1*1302 (DR13)
  IC50: 5.22 µM
HLA-DR DRB1*0101 (DR1)
  IC50: 0.0051 µM
HLA-DR DRB4*0101 (DR53)
  IC50: 6.32 µM
HLA-DR DRB1*0901 (DR9)
  IC50: 0.067 µM
HLA-DR DRB1*0701 (DR7)
  IC50: 0.07 µM
HLA-DR DRB1*1501 (DR15)
  IC50: > 45.5 µM
HLA-DR DRB1*0401 (DR4)
  IC50: 0.213 µM

## CC[C@H](C)[C@H](NC(=O)CNC(=O)[C@H](CCC(N)=O)NC(=O)[C@H](CC(C)C)NC(=O)[C@@H](NC(=O)CNC(=O)[C@H](CC(N)=O)NC(=O)[C@H](CS)NC(=O)[C@@H](NC(=O)[C@H](CC(C)C)NC(=O)[C@@H]1CCCN1C(=O)CNC(=O)CN)C(C)C)C(C)C)C(=O)N[C@H](C(=O)N[C@@H](CO)C(=O)O)[C@@H](C)O
HLA-DR DRB1*0802 (DR8)
  IC50: 9.33 µM
HLA-DR DRB1*1101 (DR11)
  IC50: 1.83 µM
HLA-DR DRB3*0101 (DR52)
  IC50: > 6.57 µM
HLA-DR DRB5*0101 (DR51)
  IC50: 13.4 µM
HLA-DR DRB1*1302 (DR13)
  IC50: 0.036 µM
HLA-DR DRB1*0101 (DR1)
  IC50: 3.35 µM
HLA-DR DRB4*0101 (DR53)
  IC50: 0.815 µM
HLA-DR DRB1*0901 (DR9)
  IC50: 16.3 µM
HLA-DR DRB1*0701 (DR7)
  IC50: > 35.7 µM
HLA-DR DRB1*1501 (DR15)
  IC50: 30.3 µM
HLA-DR DRB1*0401 (DR4)
  IC50: 0.068 µM

## CC[C@H](C)[C@H](NC(=O)[C@H](CO)NC(=O)[C@@H](NC(=O)CN)C(C)C)C(=O)N[C@@H](Cc1c[nH]c2ccccc12)C(=O)N[C@@H](CC(N)=O)C(=O)N1CCC[C@H]1C(=O)N[C@H](C(=O)N[C@@H](CC(C)C)C(=O)N[C@@H](CC(C)C)C(=O)N[C@@H](Cc1c[nH]c2ccccc12)C(=O)N[C@@H](CCC(N)=O)C(=O)N1CCC[C@H]1C(=O)N[C@H](C(=O)N1CCC[C@H]1C(=O)O)[C@@H](C)CC)[C@@H](C)CC
HLA-DR DRB1*0802 (DR8)
  IC50: 11 µM
HLA-DR DRB3*0101 (DR52)
  IC50: 4.43 µM
HLA-DR DRB1*0301 (DR3)
  IC50: 56.3 µM
HLA-DR DRB5*0101 (DR51)
  IC50: 0.523 µM
HLA-DR DRB1*0101 (DR1)
  IC50: 0.044 µM
HLA-DR DRB4*0101 (DR53)
  IC50: 0.492 µM
HLA-DR DRB1*0901 (DR9)
  IC50: 3.98 µM
HLA-DR DRB1*0701 (DR7)
  IC50: 4.99 µM
HLA-DR DRB1*1501 (DR15)
  IC50: 0.005 µM

## CC(C)C[C@H](NC(=O)[C@H](Cc1ccccc1)NC(=O)CNC(=O)[C@H](CC(C)C)NC(=O)[C@H](CO)NC(=O)[C@H](CC(C)C)NC(=O)[C@H](CO)NC(=O)[C@H](C)NC(=O)[C@H](C)NC(=O)[C@H](CCCNC(=N)N)NC(=O)[C@H](C)NC(=O)[C@H](CC(C)C)NC(=O)[C@H](CC(C)C)NC(=O)[C@H](CC(C)C)NC(=O)[C@@H]1CCCN1)C(=O)O
HLA-DR DRB1*0802 (DR8)
  IC50: 0.037 µM
HLA-DR DRB3*0101 (DR52)
  IC50: > 9.74 µM
HLA-DR DRB1*0301 (DR3)
  IC50: > 81.8 µM
HLA-DR DRB5*0101 (DR51)
  IC50: 0.151 µM
HLA-DR DRB1*1302 (DR13)
  IC50: 0.012 µM
HLA-DR DRB1*0101 (DR1)
  IC50: 0.01 µM
HLA-DR DRB4*0101 (DR53)
  IC50: 0.052 µM
HLA-DR DRB1*0901 (DR9)
  IC50: 0.058 µM

## CC[C@H](C)[C@H](NC(=O)[C@H](CS)NC(=O)[C@H](Cc1c[nH]cn1)NC(=O)[C@H](C)NC(=O)[C@H](C)NC(=O)[C@@H](NC(=O)[C@H](CC(C)C)NC(=O)[C@@H](NC(=O)[C@H](Cc1c[nH]c2ccccc12)NC(=O)[C@@H](N)CCC(N)=O)C(C)C)[C@@H](C)O)C(=O)N[C@@H](CCCNC(=N)N)C(=O)N[C@@H](CC(N)=O)C(=O)N[C@@H](CCCCN)C(=O)N[C@@H](CO)C(=O)N[C@H](C(=O)O)C(C)C
HLA-DR DRB1*0802 (DR8)
  IC50: 2.6 µM
HLA-DR DRB1*1101 (DR11)
  IC50: 2.17 µM
HLA-DR DRB3*0101 (DR52)
  IC50: 7.34 µM
HLA-DR DRB5*0101 (DR51)
  IC50: 0.035 µM
HLA-DR DRB1*1302 (DR13)
  IC50: 2.06 µM
HLA-DR DRB1*0101 (DR1)
  IC50: 0.05 µM
HLA-DR DRB4*0101 (DR53)
  IC50: 3.8 µM
HLA-DR DRB1*0901 (DR9)
  IC50: 0.967 µM
HLA-DR DRB1*0701 (DR7)
  IC50: 0.214 µM
HLA-DR DRB1*1501 (DR15)
  IC50: 13.6 µM
HLA-DR DRB1*0401 (DR4)
  IC50: 19.4 µM

## CSCC[C@H](NC(=O)[C@@H](NC(=O)[C@H](CCCCN)NC(=O)[C@@H](NC(=O)[C@H](C)NC(=O)[C@H](CC(=O)O)NC(=O)[C@@H](N)[C@@H](C)O)C(C)C)C(C)C)C(=O)N[C@@H](CC(=O)O)C(=O)N[C@@H](CC(C)C)C(=O)N1CCC[C@H]1C(=O)N[C@H](C(=O)N[C@@H](CCC(N)=O)C(=O)N[C@@H](CCC(=O)O)C(=O)N1CCC[C@H]1C(=O)N[C@@H](C)C(=O)O)[C@@H](C)O
HLA-DR DRB1*0802 (DR8)
  IC50: 20.9 µM
HLA-DR DRB1*1101 (DR11)
  IC50: > 50 µM
HLA-DR DRB3*0101 (DR52)
  IC50: > 13.5 µM
HLA-DR DRB5*0101 (DR51)
  IC50: > 200 µM
HLA-DR DRB1*1302 (DR13)
  IC50: > 35 µM
HLA-DR DRB1*0101 (DR1)
  IC50: > 50 µM
HLA-DR DRB4*0101 (DR53)
  IC50: 0.747 µM
HLA-DR DRB1*0901 (DR9)
  IC50: > 107 µM
HLA-DR DRB1*0701 (DR7)
  IC50: > 41.7 µM
HLA-DR DRB1*1501 (DR15)
  IC50: > 45.5 µM
HLA-DR DRB1*0401 (DR4)
  IC50: > 80 µM
